# Assays:
# mouse ATDC5 cells = experiment: Peptide binding to cell surface, confocal laser scanning microscopy; type: cell-based; settings: biotin-labeled peptide 260 nmol, 540 nmol, 1.08 mmol; streptavidin-FITC, DAPI
# From the text: The mouse ATDC5 chondrogenic cell line is an important chondrocyte model that has been widely used in the study of chondrocyte proliferation and differentiation. This cell line was used to evaluate the membrane-binding ability of the modified peptide, as articular cartilage (which contains chondrocytes) is one of the main cellular components in the joint cavity. The cells were purchased from Guangzhou Jennio Biotech Co., Ltd. (Guangzhou, China) and maintained in Dulbecco's Modified Eagle Medium (DMEM, ThermoFisher, America) supplemented with 10% fetal bovine serum (FBS, Gibco, Australia) at 37°C in a humidified atmosphere with 5% CO2. The 5th−10th passages of the cells were used in the study.
# To assess the binding ability of the modified peptide to the cell membrane, the three peptides were labeled with biotin at the C-terminus. […] The cells were washed and resuspended in PBS and then the binding of the peptides to the cell membrane was assessed by flow cytometry (BD Biosciences, California, USA). […] The binding of the peptides to the cell membrane was then assessed by staining with streptavidin-FITC (eBioscience). […] They were then analyzed by confocal laser scanning microscopy (Leica, Germany).
# Figure 3 Modified peptide non-specifically bound to the cell surface. (A) Binding of peptides to the surface of mouse ATDC5 cells measured by flow cytometry. […]
# C9 / MAC = settings: previous study; ref Zhao et al., 2014; cited from earlier work
# From the text: Paramyosin, a dimeric fibrillar protein, not only forms the thick myofilaments of invertebrate muscle, but also occurs on the surface of helminths and serves as a potential modulator of the host immune system by interacting with human collagen, calgranulin and so on (Zhao et al., [2014]).
Substance,binding to surface of ATDC5 cells (confocal microscopy) (mouse ATDC5 cells),inhibition of MAC assembly (C9 / MAC)
"Myr-GSSKSPSKKKKKKPG-ACP-VSMGKSLSSKVYVM [modified peptide, Ts-pmy-derived peptide modified with a membrane-targeting signal]",could bind to the surface of mouse ATDC5 cells,–
"VSMGKSLSSKVYVM [original peptide, tetradecapeptide derived from Trichinella spiralis paramyosin (Ts-pmy)]",–,inhibited the assembly of MAC

# From publication PMC7785802, “Therapeutic Efficacy of a Trichinella Spiralis Paramyosin-Derived Peptide Modified With a Membrane-Targeting Signal in Mice With Antigen-Induced Arthritis” (Frontiers in Microbiology, 2020)
